Source: patent publication US20050101595A1, “N-containing cycloalkyl-substituted amino-thiazole derivatives and pharmaceutical compositions for inhibiting cell proliferation and methods for their use” (PFIZER INC., priority 2003, published 2005)
Where a name gives a salt, the structure may show the parent alone. Read-outs that look alike come from different tables or passages of the source.

How the values were obtained:
HCT-116 cell line = assay: Inhibition of cell growth, tetrazolium salt (MTT) assay; format: cell-based; settings: for IC50: Homo sapiens, HCT-116, 120 h, MTT, three to five days, read-out: HCT-116 IC50; for HCT-116 % Inhibition at 0.25 μM: 0.25 μM compound
Procedure, shortened: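 McCoy's 5A cultures; 4 h pre-incubation; compound dilutions in 0.5% v/v DMSO; 3–5 d, 37° C, 5% CO2; MTT 0.2 mg/mL final, 4 h; formazan dissolved in DMSO, A540; vs 0.5% DMSO vehicle.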

CDK2/Cyclin A = CDK2/Cyclin A (Homo sapiens, UniProt P24941); assay: Inhibition of CDK2/Cyclin A Retinoblastoma Kinase Activity; format: biochemical; settings: for Ki: apparent Ki, CDK2/proteolyzed cyclin A, Rb fragment substrate, 25 μM ATP
Procedure, shortened: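 Baculovirus-expressed CDK2 complexed with proteolyzed cyclin A (10 or 19 nM), Rb fragment substrate, 25 μM [32P/33P]ATP, HEPES pH 7.4, 30 °C for 60 or 75 min under initial-rate conditions. Filter capture and phosphorimager readout; apparent Ki fitted to competitive or tight-binding competitive inhibition.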

[1] = biological target: human CDK4 and genetically truncated (1-264) cyclin D3 (Homo sapiens, UniProt P11802); assay: Inhibition of CDK4/Cyclin D Retinoblastoma Kinase Activity; format: biochemical; settings: for Ki: apparent Ki, CDK4/truncated cyclin D3, Rb fragment substrate, 25 μM ATP
Chain of human CDK4 and genetically truncated (1-264) cyclin D3 (P11802 whole entry, the tested form may be a part): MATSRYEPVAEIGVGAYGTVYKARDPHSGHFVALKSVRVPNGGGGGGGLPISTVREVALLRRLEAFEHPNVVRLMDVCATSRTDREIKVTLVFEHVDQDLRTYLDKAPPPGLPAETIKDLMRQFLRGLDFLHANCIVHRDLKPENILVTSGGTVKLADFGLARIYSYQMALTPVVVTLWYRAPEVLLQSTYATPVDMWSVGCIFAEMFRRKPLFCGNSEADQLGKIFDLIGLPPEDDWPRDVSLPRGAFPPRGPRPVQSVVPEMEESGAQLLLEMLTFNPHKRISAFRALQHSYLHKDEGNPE
Chain of human CDK4 and genetically truncated (1-264) cyclin D3 (P30281 1-264 partner): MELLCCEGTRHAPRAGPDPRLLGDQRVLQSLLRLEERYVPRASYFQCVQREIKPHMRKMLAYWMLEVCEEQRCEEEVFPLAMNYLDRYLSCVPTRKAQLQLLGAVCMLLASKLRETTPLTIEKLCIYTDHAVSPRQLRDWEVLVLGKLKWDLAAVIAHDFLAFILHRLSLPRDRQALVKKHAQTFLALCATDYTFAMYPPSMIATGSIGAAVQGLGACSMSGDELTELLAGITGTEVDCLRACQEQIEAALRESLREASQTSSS
Procedure, shortened: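 Human CDK4/truncated cyclin D3 (1-264) complex from baculovirus-infected insect cells, 5 nM, phosphorylating Rb fragment (residues 386-928, His-tagged) with 25 μM [32/33P]ATP in HEPES pH 7.4, MgCl2, 2% DMSO at 30° C. for 20 min (60 min for tight binders). Filter-captured radioactivity by phosphorimager; apparent Ki from competitive or tight-binding fits.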

[2] = 0.1 μM compound, HCT-116, Table 4

Nc1nc(NC2CCN(S(=O)(=O)CCc3ccccn3)CC2)sc1C(=O)c1c(F)cccc1F [Example F28, 1-{4-Amino-2-[1-(2-pyridin-2-yl-ethanesulfonyl)-piperidin-4-ylamino]-thiazol-5-yl}-1-(2,6-difluoro-phenyl)-methanone]
IC50 (HCT-116 cell line; first HCT-116 column (c4)): 650 nM | IC50 (HCT-116 cell line; second HCT-116 column (c5)): 1300 nM | Ki (CDK2/Cyclin A): 3.6 nM | Ki [1]: 8.1 nM

COc1cccc(C(=O)N2CCC(Nc3nc(N)c(C(=O)c4c(F)cccc4F)s3)CC2)c1OC [Example R115]
HCT-116 % Inhibition at 0.1 μM (HCT-116 cell line; HCT-116 cells, at 0.1 μM): 0% | HCT-116 5 Inhibition at 0.25 μM (HCT-116 cell line; HCT-116 cells): 49 | CDK2 % Inhibition at 0.03 μM (CDK2/Cyclin A; at 0.03 μM): 42% | CDK4 % Inhibition at 0.03 μM ([1]; at 0.03 μM): 58%

CC(=O)OC(C(=O)N1CCC(Nc2nc(N)c(C(=O)c3c(F)cccc3F)s2)CC1)c1ccccc1 (stereo not shown) [Example Q40]
HCT-116 % Inhibition at 0.1 μM (HCT-116 cell line; [2]): 0% | HCT-116 % Inhibition at 0.25 μM (HCT-116 cell line; HCT-116, Table 4): 20% | CDK2 % Inhibition at 0.03 μM (CDK2/Cyclin A; 0.03 μM compound, Table 4): −5% | CDK4 % Inhibition at 0.03 μM ([1]; 0.03 μM compound, Table 4): 7%

COC(=O)c1ccc(OC(=O)N2CCC(Nc3nc(N)c(C(=O)c4c(F)cccc4F)s3)CC2)cc1 [Example Q87]
HCT-116 % Inhibition at 0.1 μM (HCT-116 cell line; [2]): 4% | HCT-116 % Inhibition at 0.25 μM (HCT-116 cell line; HCT-116, Table 4): 37% | CDK2 % Inhibition at 0.03 μM (CDK2/Cyclin A; 0.03 μM compound, Table 4): 54% | CDK4 % Inhibition at 0.03 μM ([1]; 0.03 μM compound, Table 4): 77%

N#Cc1ccccc1S(=O)(=O)N1CCC(Nc2nc(N)c(C(=O)c3c(F)cccc3F)s2)CC1 [Example F9, 2-{4-[4-Amino-5-(2,6-difluoro-benzoyl)-thiazol-2-ylamino]-piperidine-1-sulfonyl}-benzonitrile]
IC50 (HCT-116 cell line; first HCT-116 column (c4)): 140 nM | IC50 (HCT-116 cell line; second HCT-116 column (c5)): 250 nM | Ki (CDK2/Cyclin A): 2 nM | Ki [1]: 3.6 nM

Nc1nc(NC2CCN(C(=O)COCc3ccccc3)CC2)sc1C(=O)c1c(F)cccc1F [Example Q75]
HCT-116 % Inhibition at 0.1 μM (HCT-116 cell line; [2]): 5% | HCT-116 % Inhibition at 0.25 μM (HCT-116 cell line; HCT-116, Table 4): 39% | CDK2 % Inhibition at 0.03 μM (CDK2/Cyclin A; 0.03 μM compound, Table 4): 9% | CDK4 % Inhibition at 0.03 μM ([1]; 0.03 μM compound, Table 4): 20%

Nc1nc(NC2CCN(C(=O)c3ccccc3C(F)(F)F)CC2)sc1C(=O)c1c(F)cccc1F [Example Q16]
HCT-116 % Inhibition at 0.1 μM (HCT-116 cell line; [2]): 11% | HCT-116 % Inhibition at 0.25 μM (HCT-116 cell line; HCT-116, Table 4): 50% | CDK2 % Inhibition at 0.03 μM (CDK2/Cyclin A; 0.03 μM compound, Table 4): −12% | CDK4 % Inhibition at 0.03 μM ([1]; 0.03 μM compound, Table 4): 19%

CNCCS(=O)(=O)N1CCC(Nc2nc(N)c(C(=O)c3c(F)cccc3F)s2)CC1 [Example K33, {4-Amino-2-[1-(2-methylamino-ethanesulfonyl)-piperidin-4-ylamino]-thiazol-5-yl}-(2,6-difluoro-phenyl)-methanone Trifluoroacetic Acid Salt.]
IC50 (HCT-116 cell line; first HCT-116 column (c4)): 650 nM | IC50 (HCT-116 cell line; second HCT-116 column (c5)): 5000 nM | Ki (CDK2/Cyclin A): 5.6 nM | Ki [1]: 0.64 nM

CN(C)CCN(C)c1ccc(S(=O)(=O)N2CCC(Nc3nc(N)c(C(=O)c4c(F)cccc4F)s3)CC2)cn1 [Example G1, Trifluoroacetic Acid Salt]
IC50 (HCT-116 cell line; first HCT-116 column (c4)): 120 nM | IC50 (HCT-116 cell line; second HCT-116 column (c5)): > 500 nM | Ki (CDK2/Cyclin A): 1.4 nM | Ki [1]: 0.64 nM

Cc1nn(C)c(Cl)c1S(=O)(=O)N1CCC(Nc2nc(N)c(C(=O)c3c(F)cccc3F)s2)CC1 [Example P50]
HCT-116 % Inhibition at 0.1 μM (HCT-116 cell line; 0.1 μM compound, HCT-116, Table 3): 14% | HCT-116 % Inhibition at 0.25 μM (HCT-116 cell line; HCT-116, Table 3): 25% | CDK2 % Inhibition at 0.03 μM (CDK2/Cyclin A; 0.03 μM compound, Table 3): 30% | CDK4 % Inhibition at 0.03 μM ([1]; 0.03 μM compound, Table 3): 35%

COC(=O)c1cccc(NC(=O)N2CCC(Nc3nc(N)c(C(=O)c4c(F)cccc4F)s3)CC2)c1 [Example O60]
HCT-116 % Inhibition at 0.25 μM (HCT-116 cell line; HCT-116, Table 2): 39% | CDK2 % Inhibition At 0.03 μM (CDK2/Cyclin A; 0.03 μM compound, Table 2): 24% | CDK4 % Inhibition at 0.03 μM ([1]; 0.03 μM compound, Table 2): 12%

COc1ccc(C(=O)N2CCC(Nc3nc(N)c(C(=O)c4c(F)cccc4F)s3)CC2)c(OC)c1 [Example R116]
HCT-116 % Inhibition at 0.1 μM (HCT-116 cell line; HCT-116 cells, at 0.1 μM): 9% | HCT-116 5 Inhibition at 0.25 μM (HCT-116 cell line; HCT-116 cells): 44 | CDK2 % Inhibition at 0.03 μM (CDK2/Cyclin A; at 0.03 μM): 49% | CDK4 % Inhibition at 0.03 μM ([1]; at 0.03 μM): 67%

Nc1nc(NC2CCN(C(=O)c3ccc(I)cc3)CC2)sc1C(=O)c1c(F)cccc1F [Example Q53]
HCT-116 % Inhibition at 0.1 μM (HCT-116 cell line; [2]): 0% | HCT-116 % Inhibition at 0.25 μM (HCT-116 cell line; HCT-116, Table 4): 22% | CDK2 % Inhibition at 0.03 μM (CDK2/Cyclin A; 0.03 μM compound, Table 4): 60% | CDK4 % Inhibition at 0.03 μM ([1]; 0.03 μM compound, Table 4): 83%

Nc1nc(NC2CCN(C(=O)c3ccc([N+](=O)[O-])cc3)CC2)sc1C(=O)c1c(F)cccc1F [Example Q71]
HCT-116 % Inhibition at 0.1 μM (HCT-116 cell line; [2]): 2% | HCT-116 % Inhibition at 0.25 μM (HCT-116 cell line; HCT-116, Table 4): 30% | CDK2 % Inhibition at 0.03 μM (CDK2/Cyclin A; 0.03 μM compound, Table 4): 28% | CDK4 % Inhibition at 0.03 μM ([1]; 0.03 μM compound, Table 4): 61%
